Test results: US8350097B2, “Therapeutic compounds” (priority 2007, dated 2013)

Columns and labels:
[1] = tested on: Male Sprague Dawley rats; experiment: Test A. Loss of Righting Reflex Assay; assay type: in vivo, rat
Description: The ability of a compound of the invention to produce a sedative or hypnotic effect can be determined using standard pharmacological models which are well known to the art.
Test A. Loss of Righting Reflex Assay
Male Sprague Dawley rats were restrained in a holder and injection test compounds were injected in the tail vein (based on mg test compound/kg body weight). Following administration, the rats were placed in dorsal recumbent position on a heating blanket. The time to onset for the loss of the Righting Reflex (RR-ability of rat to right itself) was recorded, as was the duration of the loss of the RR.

[2] = Aqueous phase concentration in lipid emulsion (pain on injection surrogate), ultrafiltration + LC/MS/MS; assay type: physicochemical; details: for reduction in aqueous phase concentration compared to propofol in identical formulations: 1% lipid emulsions formulated per Example 5
Description: The concentration of Compound 1 in the aqueous phase (aqueous phase concentration) of a lipid emulsion formulation was determined.
A one percent (1%) Compound 1 formulation was formulated in accordance with Example 5, Compound 1 being prepared as described in Example 2.

[3] = Pharmacokinetic study, IV infusion in domestic pigs; assay type: in vivo
Description: A 0.5% Compound 1 formulation, prepared as described in Example 2 and formulated in accordance with Example 6, was administered to 6 pigs via a 20-min intravenous (IV) infusion at 0.6 mg/kg/min (12 mg/kg total dose).

[4] = tested on: commercial farm-bred swine; assay type: in vivo, pig; details: pigs, 0.6 mg per kg per min
Description: Experiments were performed on commercial farm-bred swine of either sex (mean weight 33.6 kg). Anesthesia was induced with isoflurane. Intravascular access was obtained from an ear vein. Each pig was intubated and mechanically ventilated. Tissue oxygenation was monitored using continuous pulse oximetry placed on the tongue. Ventilation was monitored using an inspired/expired gas analyzer that measured oxygen, carbon dioxide, and potent inhalation agent concentrations. Ventilator settings were adjusted as needed to maintain steady state.
ECG was monitored throughout the study. Arterial blood pressure was monitored through the cannulated left femoral artery. MAP, systolic and diastolic arterial pressures and heart rate were collected every 5 seconds. An internal jugular vein was cannulated with a pulmonary artery catheter for thermodilution estimates of cardiac output and blood temperature. Body temperature was maintained at 37° C.

[5] = tested on: commercial farm-bred swine; experiment: Hemodynamic effects, blood gas and serum chemistry in anesthetized ventilated pigs, IV infusion; assay type: in vivo, pig; details: IV infusion 0.6 mg/kg/min
Description: Anesthesia was induced with isoflurane. Intravascular access was obtained from an ear vein. Each pig was intubated and mechanically ventilated.
ECG was monitored throughout the study. […] Body temperature was maintained at 37° C.
Arterial blood gas samples from pigs infused with Compound 1 were taken and analyzed for blood gas and serum chemistry values.

[6] = tested on: Male descented ferrets; experiment: Anti-emetic activity in ferrets (morphine sulfate-induced emesis); assay type: in vivo, ferret; details: 6 ferrets, 15 min IV infusion at 1 mg/kg/min then 0.5 mg/kg morphine sulfate s.c., 45 min observation
Description: Male descented ferrets weighing 1.0-1.5 kg with vascular access ports in the jugular vein were housed on a 12/12-hour light/dark cycle under controlled temperature, with food and water provided ad libitum. On each study day, food was presented to ferrets one hour prior to dosing. Immediately prior to dosing, food and water were removed. A 1% Compound 1 formulation, prepared as described in Example 2 and formulated in accordance with Example 5, or […] was administered by IV infusion to the ferrets; see Wynn R L et al, 1993, Eur J Pharmacol 241, 42 re […] administration in ferrets. After administration of Compound 1 or […], animals were placed in clean, transparent cages (with lids) and left unrestrained for a 45-min observation period by an observer blinded to the specific treatment administered.
Episodes of retching and/or vomiting were considered separate episodes when the interval between retches and/or vomits exceeded 5 sec.
After termination of the infusion, 0.5 mg/kg morphine sulfate was administered subcutaneously and the ferrets were monitored for 45 min as described above. Six additional ferrets were administered subcutaneously 0.5 mg/kg morphine sulfate only.

[7] = tested on: pig; experiment: Test B. Anesthetized Pig Model (hemodynamic profile); assay type: in vivo; details: equi-anesthetic doses (3 mg/kg vs propofol 6 mg/kg), FIGS. 1 and 2
Description: The hemodynamic profile of a compound of the invention can be determined using standard pharmacological models which are well known to the art. The hemodynamic and anesthetic profiles of a compound of the invention were evaluated simultaneously using an anesthetized pig model (as described in Test B below). In this assay, the hemodynamic profile of a compound of the invention was compared to that of propofol at equi-anesthetic doses.
Test B. Anesthetized Pig Model
The anesthetic induction will be performed using a modification of a technique described by Ko et al (Ko et al., Lab Anim Sci 1993; 43: 476-80) for swine (Telazol, xylazine and ketamine given as an intramuscular injection). […]
A pilot dose-finding study will be performed to establish an appropriate infusion dose for each agent. […] Blood samples (1 mL each) may be collected at pre-dose and at 2, 4, 6, 8, 10, 12, 15, 20, 22, […], 25, 35, 50, 65 and 80 minutes after the start of the first infusion for pharmacokinetic purposes; EEG will be recorded continuously as the primary pharmacodynamic endpoint. […]
The EEG signal will be fed to a BIS analyzer (Aspect Medical) which provides continuous output of processed EEG data. The output consists of a “BIS” number calculated by a proprietary algorithm that ranges between 100 (fully conscious) and 0 (isoelectric) and indicates brain activity. […]

## CC[C@@H](C)c1cccc(C(C)C)c1O [Compound 1, (R)-(−)-2-sec-butyl-6-isopropylphenol]
[1]; 7 mg/kg bolus in tail vein, 1% formulation
  duration of anesthesia (loss of the Righting Reflex): 14.9 min
[1]; Test A
  hypnotic potency compared to propofol: more potent than propofol
[2]; 1% Compound 1 formulation vs DIPRIVAN
  reduction in aqueous phase concentration compared to propofol in DIPRIVAN: 57%
[2]
  reduction in aqueous phase concentration compared to propofol in identical formulations: 72%
[2]; listed as (R)-(−)-2-sec-butyl-6-isopropylphenol
  reduction in aqueous phase concentration compared to propofol in identical formulations: more than 70%
[2]; aqueous phase of 1% lipid emulsion separated by ultrafiltration
  aqueous phase concentration: 1.78 ± 0.17 µg/mL
[3]
  metabolic pathway: glucuronidation in the 1-position with the 4-position being subject to hydroxylation followed by glucuronide and sulfate conjugation
[3]; IV infusion
  Clearance: exceeded estimated hepatic blood flow
[4]
  IV infusion time producing maximal suppression of BIS (<10): 17.3 ± 1.9 min
[5]
  metabolic alterations (arterial blood gas and serum chemistry): did not produce any significant metabolic alterations
[6]
  retches in the presence of morphine: 47
  vomits in the presence of morphine: 1
[7]
  hemodynamic profile vs. propofol: improved hemodynamic profile
